# Counter-ions that a name gives are not always drawn.
# Tested on: SARS2-S-mediated membrane fusion
# Assay type: cell-based, SARS-CoV-2
smiles,measurement,value
CC(CN(C)C)CN1c2ccccc2Sc2ccccc21 (centres unmarked) [Alimemazine tartrate],SARS2-S-mediated membrane fusion (average number of nuclei in each syncytium),reduced the formation of syncytia
same,"membrane fusion by mutant SARS2-S (Δ69–70, N501Y, E484K, D614G)",reduced the formation of syncytia

# — paper PMC9721373 (Antiviral Research, 2022)
